Source: patent US20050112198A1, “Bupropion formulation for sustained delivery” (priority 2003, published 2005)

Legend:
[1] = crystalline solid; cited from earlier work
[2] = In-house drug-excipient compatibility / storage stability of bupropion hydrochloride; assay type: physicochemical; conditions: for degradation of active drug in drug-excipient mixtures: 50° C./75% RH and 40° C./75% RH
Experimental: In order to study the compatibility of various excipients used in the proposed invention with bupropion hydrochloride, various drug-excipient mixtures were prepared. The each excipient amount relative to drug varied from 1:1 to 1:10. […] As predicted with the active drug, it has been observed during their analysis at various time intervals by liquid chromatography that most of the excipients studied are causing degradation of the active drug with a result of two distinct degradation peaks, in which all cellulose based excipients considered to be interacting uniquely with the pure drug compared to non-cellulose based excipients. […] The above changes were more pronounced in samples studied under open conditions compared to closed condition samples. […] Such degradation could be due to impurities like peroxide, heavy metals and bleaching agents present in such materials. Even though such impurities are present within acceptable limits, the moisture content carried in them should have acted as solvent to aggravate such reactions. […] The package component seems to play a vital role for stabilizing the dosage form: high-density polyethylene (HDPE) containers with additional thickness/weight are preferred apart from maintaining sufficient quantity of adsorbent added to the packaging system to minimize moisture and oxygen/odor levels.

CC(NC(C)(C)C)C(=O)c1cccc(Cl)c1.Cl (racemic) [Bupropion hydrochloride, (±)-1-(3-chlorophenyl)-2-[(1,1-dimethylethyl)amino]-1-propanone hydrochloride]
water solubility [1]: water soluble
stability of the salt form alone ([2]; in-house studies, normal storage conditions, without excipients): stable in normal storage conditions
degradation of active drug in drug-excipient mixtures ([2]; mixtures with Kollidon VA64, Kollidon SR, methylcellulose, colloidal silicon dioxide, magnesium stearate, enteric coating materials): minimum amount or no change
degradation of active drug in drug-excipient mixtures ([2]; mixtures with hydroxypropyl cellulose, polyethylene oxide and sodium carboxymethyl cellulose, 1:1 to 1:10, liquid chromatography): rapid degradation
